Data taken from patent US11084781B2, “Diarylureas as CB1 allosteric modulators” (Research Triangle Institute, priority 2017, dated 2021).
“Also recorded” adds a separate entry of the source.

Assays:
human CB1 receptor [1] = molecular target: T1, human CB1 receptor (Homo sapiens, UniProt P21554); assay: CB1 calcium mobilization assay (antagonist mode, against EC80 of CP55,940); format: cell-based; details: Table 1; against EC80 (100 nM) of CP55,940; mean ± S.E.M.; read-out: CB1 calcium assay IC50
T1 construct: host or cells: CHO-RD-HGA16 cells (CHO cells overexpressing promiscuous Galpha16)
Experimental: CHO-RD-HGA16 cells (Molecular Devices, CA) stably expressing the human CB1 receptor were plated into 96-well black-walled assay plates at 25,000 cells/well in 100 μL of Ham's F12 (supplemented with 10% fetal bovine serum, 100 units of penicillin/streptomycin, and 100 μg/mL Normocin) and incubated overnight at 37° C., 5% CO2. Calcium 5 dye (Molecular Devices, CA) was reconstituted according to the manufacturer's instructions. The reconstituted dye was diluted 1:40 in prewarmed (37° C.) assay buffer (1×HBSS, 20 mM HEPES, 2.5 mM probenecid, pH 7.4 at 37° C.). Growth medium was removed, and the cells were gently washed with 100 μL of prewarmed (37° C.) assay buffer. […] After the pretreatment incubation period, the plate was read with a FLIPR Tetra (Molecular Devices, CA). […] Relative fluorescence units (RFU) were plotted against the log of compound concentrations. Data were fit to a three-parameter logistic curve to generate IC50 values (GraphPad Prism 6.0, CA). […] Test compound RFUs were compared to the CP55,940 Emax RFUs to generate % Emax values.
In these assays, CHO cells that overexpress the promiscuous Gα16 protein were engineered to stably express the CB1 or CB2 receptor. Compounds were evaluated for their ability to decrease the mobilization of intracellular calcium levels stimulated by CP55,940.

human CB1 receptor [2] = molecular target: T1, human CB1 receptor; assay: CB1 calcium mobilization assay, agonist screen; format: cell-based; details: Table 1; 10,000 nM final concentration; mean ± SD
Experimental: CHO-RD-HGA16 cells (Molecular Devices, CA) stably expressing the human CB1 receptor were plated into 96-well black-walled assay plates at 25,000 cells/well in 100 μL of Ham's F12 (supplemented with 10% fetal bovine serum, 100 units of penicillin/streptomycin, and 100 μg/mL Normocin) and incubated overnight at 37° C., 5% CO2. Calcium 5 dye (Molecular Devices, CA) was reconstituted according to the manufacturer's instructions. The reconstituted dye was diluted 1:40 in prewarmed (37° C.) assay buffer (1×HBSS, 20 mM HEPES, 2.5 mM probenecid, pH 7.4 at 37° C.). Growth medium was removed, and the cells were gently washed with 100 μL of prewarmed (37° C.) assay buffer. The cells were incubated for 45 min at 37° C., 5% CO2 in 200 μL of the diluted Calcium 5 dye solution. […] Serial dilutions of the test compounds were prepared at 10× the desired final concentration in 2.25% BSA/4.5% DMSO/4.5% EtOH/assay buffer. After the dye loading incubation period, the cells were pretreated with 25 μL of the test compound serial dilutions and incubated for 15 min at 37° C. After the pretreatment incubation period, the plate was read with a FLIPR Tetra (Molecular Devices, CA). Calcium-mediated changes in fluorescence were monitored every 1 s over a 90 s time period, with the Tetra adding 25 μL of the CP55,940 EC80 concentration at the 10s time point (excitation/emission: 485/525 nm). Relative fluorescence units (RFU) were plotted against the log of compound concentrations. Data were fit to a three-parameter logistic curve to generate IC50 values (GraphPad Prism 6.0, CA). […] For agonist screens, the above procedure was followed except that cells were pretreated with 2.25% BSA/4.5% DMSO/4.5% EtOH/assay buffer and the Tetra added single concentration dilutions of the test compounds prepared at 10× the desired final concentration in 0.25% BSA/0.5% DMSO/0.5% EtOH/assay buffer. Test compound RFUs were compared to the CP55,940 Emax RFUs to generate % Emax values.

CB1 receptor = molecular target: T2, CB1 receptor (Mus musculus, UniProt P47746); assay: [35S]GTP-γ-S binding assay in mouse cerebellar membranes, CP55,940-stimulated; format: biochemical; details: for IC50: CP55,940 (100 nM) stimulation, mean (95% confidence interval)
T2 construct: from tissue; host or cells: cerebellar membranes of adult male CD-1 mice
Experimental: Cerebella from adult male CD-1 mice were dissected on ice, snap frozen, and stored at −80° C. until the day of the experiment. Cerebella were homogenized by polytron in membrane buffer (50 mM Tris, 3 mM MgCl2, 0.2 mM EGTA, 100 mM NaCl, pH 7.4) on ice, centrifuged for 10 min at 40,000×g at 4° C. The supernatant was discarded and the pellet was suspended in membrane buffer, homogenized, and centrifuged again for 10 min at 40,000×g. The pellet was resuspended in membrane buffer and protein quantified by Bradford method.
CB1 receptor agonist CP55,940 was employed as the agonist probe.

[3] = Metabolic stability in rat liver microsomes; format: in vitro ADME
Experimental: Metabolic stability assessment was performed by Paraza Pharma Inc. (Montreal, Canada).
Compounds were incubated with rat liver microsomes at 37° C. for a total of 45 minutes. The reaction was performed at pH 7.4 in 100 mM potassium phosphate buffer containing 0.5 mg/mL of rat liver microsomal protein. Phase I metabolism was assessed by adding NADPH to a final concentration of 1 mM and collecting samples at time points 0, 5, 15, 30 and 45 minutes. All collected samples were quenched 1:1 with ice-cold stop solution (1 μM labetalol and 1 μM glyburide in acetonitrile), and centrifuged to remove precipitated protein. Resulting supernatants were further diluted 1:4 with acetonitrile:water (1:1). Samples were analyzed by LC/MS/MS and calculations for half-life, and in-vitro clearance were accomplished using Microsoft Excel (2007).

[4] = system: cocaine-seeking behavior in rats; assay: Reinstatement of extinguished cocaine-seeking behavior; format: in vivo, rat
Experimental: Animals: Adult male Sprague-Dawley rats (Harlan, Indianapolis, Ind.) weighing 280-300 g were used in the study. Animals were housed individually on a 12/12 hr light/dark cycle (behavioral experiments were conducted during the light period) with free access to water and food except during experimental sessions. Animals were maintained and experiments conducted in accordance with the Institutional Animal Care and Use Committee, University at Buffalo, and with the 2011 Guide for the Care and Use of Laboratory Animals (Institute of Laboratory Animal Resources on Life Sciences, National Research Council, National Academy of Sciences, Washington D.C.).
Drug self-administration, extinction and reinstatement: The reinstatement procedure was described in detail elsewhere^37, 38. Briefly, rats were surgically implanted with a chronic indwelling jugular catheter. After one-week recovery, rats were trained to press the active lever (left lever) for infusion of cocaine (0.75 mg/kg/inf) under a fixed ratio [FR] schedule (starting FR=1, which was increased to FR 5 within 5 training sessions) schedule during daily 2-hr sessions for 14 days. Reinforcer deliveries were accompanied by the presentation of a stimulus light over the active lever followed by a 30-s time-out period during which lever presses had no programmed consequence. Following acquisition of cocaine self-administration, extinction of drug-seeking behavior took place during 2-hr daily sessions in which lever pressing produced no consequence. All other conditions remained unchanged. After 7 days of extinction, all rats reached the extinction criteria (total responses less than 20% of the training sessions).
Drug-induced reinstatement test was conducted on the day following the last extinction session. Rats were pretreated with vehicle, compounds 2 (15, 30 mg/kg) or 34 (10 mg/kg) 10 min prior to a priming injection of cocaine (10 mg/kg, i.p.) administered immediately before the start of the reinstatement session.
Data analyses: Data are expressed as mean±S.E.M. Differences in active lever responding between the last extinction session and reinstatement session were determined with paired t tests (within subjects comparison). The effects of compounds 2 on reinstatement were analyzed by a one-way analysis of variance (ANOVA) followed by post hoc Bonferroni's test (between subjects comparison). The effects of compounds 34 on reinstatement was analyzed by Student's t test. P<0.05 was considered statistically significant.

[5] = pretreatment 10 min prior to cocaine prime 10 mg/kg i.p.

T2 sequence (P47746 whole entry): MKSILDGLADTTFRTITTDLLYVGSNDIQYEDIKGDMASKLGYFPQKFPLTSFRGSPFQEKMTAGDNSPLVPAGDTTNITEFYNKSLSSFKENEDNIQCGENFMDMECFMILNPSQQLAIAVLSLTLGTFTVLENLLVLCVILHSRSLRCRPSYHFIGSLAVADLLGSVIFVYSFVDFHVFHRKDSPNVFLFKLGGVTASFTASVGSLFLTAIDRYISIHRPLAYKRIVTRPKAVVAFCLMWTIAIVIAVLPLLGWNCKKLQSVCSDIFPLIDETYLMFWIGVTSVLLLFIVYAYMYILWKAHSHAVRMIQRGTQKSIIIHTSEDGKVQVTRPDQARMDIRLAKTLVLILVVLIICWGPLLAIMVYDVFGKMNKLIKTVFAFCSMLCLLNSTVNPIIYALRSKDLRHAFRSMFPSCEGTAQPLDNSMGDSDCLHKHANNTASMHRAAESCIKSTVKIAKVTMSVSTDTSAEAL
T1 sequence (P21554 whole entry): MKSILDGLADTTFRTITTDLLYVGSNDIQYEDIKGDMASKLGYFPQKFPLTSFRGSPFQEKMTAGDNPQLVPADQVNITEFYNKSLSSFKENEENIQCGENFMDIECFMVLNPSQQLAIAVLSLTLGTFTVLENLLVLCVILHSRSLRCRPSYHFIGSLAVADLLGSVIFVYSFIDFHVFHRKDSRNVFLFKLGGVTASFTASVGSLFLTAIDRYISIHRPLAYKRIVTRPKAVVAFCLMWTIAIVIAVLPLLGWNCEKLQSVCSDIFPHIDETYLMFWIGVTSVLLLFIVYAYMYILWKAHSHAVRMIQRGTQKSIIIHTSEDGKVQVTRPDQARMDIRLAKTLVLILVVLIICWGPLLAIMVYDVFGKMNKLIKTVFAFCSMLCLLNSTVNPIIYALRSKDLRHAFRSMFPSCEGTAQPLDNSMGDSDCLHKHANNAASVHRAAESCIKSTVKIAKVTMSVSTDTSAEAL

O=C(Nc1ccc(Cl)cc1)Nc1cccc(-c2ccncc2)c1 [Compound 20, 3-(4-Chlorophenyl)-1-[3-(pyridin-4-yl)phenyl]urea]
IC50 (human CB1 receptor [1]): 178 ± 38 nM | CB1 calcium assay Agonist screen (% CP55, 940 Emax) (human CB1 receptor [2]): 14.5 ± 2.5 % CP55, 940 Emax | IC50 (CB1 receptor): 407 nM | Clearance ([3]; 0.5 mg/mL, NADPH, 37° C., mean ± S.E.M.): 33.1 ± 1.0 µL/min/mg | Increase in metabolic stability relative to B ([3]; half-life vs B): ~3 fold

O=C(Nc1ccc(Cl)cc1)Nc1cccc(-c2cc(Cl)cc(Cl)c2)c1 [Compound 31, 3-(4-Chlorophenyl)-1-[3-(3,5-dichlorophenyl)phenyl]urea]
IC50 (human CB1 receptor [1]): 22 ± 2 nM | CB1 calcium assay Agonist screen (% CP55, 940 Emax) (human CB1 receptor [2]): 15.5 ± 2.4 % CP55, 940 Emax | IC50 (CB1 receptor): 299 nM

O=C(Nc1ccc(Cl)cc1)Nc1cccc(-c2ccc(Cl)c(Cl)c2)c1 [Compound 32, 3-(4-Chlorophenyl)-1-[3-(3,4-dichlorophenyl)phenyl]urea]
IC50 (human CB1 receptor [1]): 30 ± 4 nM | CB1 calcium assay Agonist screen (% CP55, 940 Emax) (human CB1 receptor [2]): 10.4 ± 2.1 % CP55, 940 Emax | IC50 (CB1 receptor): 464 nM

O=C(Nc1ccc(Cl)cc1)Nc1cccc(-c2ccc(F)cc2)c1 [Compound 34, 3-(4-Chlorophenyl)-1-[3-(4-fluorophenyl)phenyl]urea]
IC50 (human CB1 receptor [1]): 23 ± 2 nM | CB1 calcium assay Agonist screen (% CP55, 940 Emax) (human CB1 receptor [2]): 8.8 ± 1.1 % CP55, 940 Emax | IC50 (CB1 receptor): 151 nM | half-life ([3]; pH 7.4, 0.5 mg/mL, NADPH, 37° C., mean ± S.E.M.): > 5 h | microsomal CLint ([3]; pH 7.4, 0.5 mg/mL, NADPH, 37° C., mean ± S.E.M., read-out: Clearance): < 4.6 µL/min/mg | Attenuation of cocaine-induced reinstatement of cocaine-seeking behavior ([4]; dose 10 mg/kg, cocaine prime 10 mg/kg i.p.): produced the same degree of attenuation as that of 30 mg/kg of B | Attenuation of cocaine-induced reinstatement of cocaine-seeking behavior [4, 5]: attenuated the resumption of extinguished cocaine-seeking behavior

O=C(Nc1ccc(Cl)cc1)Nc1cccc(-c2cccc(-c3ccccc3)c2)c1 [Compound 38, 3-(4-Chlorophenyl)-1-[3-(3-phenylphenyl)phenyl]urea]
IC50 (human CB1 receptor [1]): 195 ± 40 nM | CB1 calcium assay Agonist screen (% CP55, 940 Emax) (human CB1 receptor [2]): 0.5 ± 0.2 % CP55, 940 Emax | IC50 (CB1 receptor): 559 nM

O=C(Nc1ccc(Cl)cc1)Nc1cccc(-c2ccc3occc3c2)c1 [Compound 41, 1-[3-(1-Benzofuran-5-yl)phenyl]-3-(4-chlorophenyl)urea]
IC50 (human CB1 receptor [1]): 134 ± 13 nM | CB1 calcium assay Agonist screen (% CP55, 940 Emax) (human CB1 receptor [2]): 0.2 ± 1.0 % CP55, 940 Emax | IC50 (CB1 receptor): 265 nM

O=C(Nc1ccc(Cl)cc1)Nc1cccc(-c2cnc3ccccc3c2)c1 [Compound 44, 3-(4-Chlorophenyl)-1-[3-(quinolin-3-yl)phenyl]urea]
IC50 (human CB1 receptor [1]): 516 ± 70 nM | CB1 calcium assay Agonist screen (% CP55, 940 Emax) (human CB1 receptor [2]): 2.6 ± 1.2 % CP55, 940 Emax | IC50 (CB1 receptor): 651 nM

O=C(Nc1ccc(Cl)cc1)Nc1cccc(-c2ccsc2)c1 [Compound 47, 3-(4-Chlorophenyl)-1-[3-(thiophen-3-yl)phenyl]urea]
IC50 (human CB1 receptor [1]): 36 ± 1 nM | CB1 calcium assay Agonist screen (% CP55, 940 Emax) (human CB1 receptor [2]): 28.9 ± 0.6 % CP55, 940 Emax | IC50 (CB1 receptor): 164 nM

O=C(Nc1ccc(Cl)cc1)Nc1cccc(-c2cccs2)c1 [Compound 48, 3-(4-Chlorophenyl)-1-[3-(thiophen-2-yl)phenyl]urea]
IC50 (human CB1 receptor [1]): 67 ± 6 nM | CB1 calcium assay Agonist screen (% CP55, 940 Emax) (human CB1 receptor [2]): 12.8 ± 1.8 % CP55, 940 Emax | IC50 (CB1 receptor): 573 nM

Cc1cc(-c2cccc(NC(=O)Nc3ccc(Cl)cc3)c2)cs1 [Compound 49, 3-(4-Chlorophenyl)-1-[3-(5-methylthiophen-3-yl)phenyl]urea]
IC50 (human CB1 receptor [1]): 40 ± 4 nM | CB1 calcium assay Agonist screen (% CP55, 940 Emax) (human CB1 receptor [2]): 3.7 ± 1.7 % CP55, 940 Emax | IC50 (CB1 receptor): 776 nM

Cc1ccc(-c2cccc(NC(=O)Nc3ccc(Cl)cc3)c2)s1 [Compound 50, 3-(4-Chlorophenyl)-1-[3-(5-methylthiophen-2-yl)phenyl]urea]
IC50 (human CB1 receptor [1]): 42 ± 6 nM | CB1 calcium assay Agonist screen (% CP55, 940 Emax) (human CB1 receptor [2]): 4.6 ± 1.4 % CP55, 940 Emax | IC50 (CB1 receptor): 372 nM

O=C(Nc1ccc(Cl)cc1)Nc1cccc(-c2cncs2)c1 [Compound 51, 3-(4-Chlorophenyl)-1-[3-(1,3-thiazol-5-yl)phenyl]urea]
IC50 (human CB1 receptor [1]): 94 ± 9 nM | CB1 calcium assay Agonist screen (% CP55, 940 Emax) (human CB1 receptor [2]): 8.1 ± 3.1 % CP55, 940 Emax | IC50 (CB1 receptor): 331 nM

O=C(Nc1ccc(Cl)cc1)Nc1cccc(-c2cscn2)c1 [Compound 52, 3-(4-Chlorophenyl)-1-[3-(1,3-thiazol-4-yl)phenyl]urea]
IC50 (human CB1 receptor [1]): 84 ± 6 nM | CB1 calcium assay Agonist screen (% CP55, 940 Emax) (human CB1 receptor [2]): 8.6 ± 4.4 % CP55, 940 Emax | IC50 (CB1 receptor): 250 nM

O=C(Nc1ccc(Cl)cc1)Nc1cccc(-c2nccs2)c1 [Compound 53, 3-(4-Chlorophenyl)-1-[3-(1,3-thiazol-2-yl)phenyl]urea]
IC50 (human CB1 receptor [1]): 154 ± 14 nM | CB1 calcium assay Agonist screen (% CP55, 940 Emax) (human CB1 receptor [2]): 20.1 ± 1.1 % CP55, 940 Emax | IC50 (CB1 receptor): 1260 nM

O=C(Nc1ccc(Cl)cc1)Nc1cccc(-c2ccc[nH]2)c1 [Compound 65, 3-(4-Chlorophenyl)-1-[3-(1H-pyrrol-2-yl)phenyl]urea]
IC50 (human CB1 receptor [1]): 169 ± 34 nM | CB1 calcium assay Agonist screen (% CP55, 940 Emax) (human CB1 receptor [2]): 13.7 ± 0.1 % CP55, 940 Emax | IC50 (CB1 receptor): 40 nM

Cn1cccc1-c1cccc(NC(=O)Nc2ccc(Cl)cc2)c1 [Compound 68, 3-(4-Chlorophenyl)-1-[3-(1-methyl-1H-pyrrol-2-yl)phenyl]urea]
IC50 (human CB1 receptor [1]): 165 ± 14 nM | CB1 calcium assay Agonist screen (% CP55, 940 Emax) (human CB1 receptor [2]): 3.4 ± 2.9 % CP55, 940 Emax | IC50 (CB1 receptor): 665 nM

O=C(Nc1ccc(Cl)cc1)Nc1cccc(-c2ncc[nH]2)c1 [Compound 72, 3-(4-Chlorophenyl)-1-[3-(1H-imidazol-2-yl)phenyl]urea]
IC50 (human CB1 receptor [1]): 529 ± 98 nM | CB1 calcium assay Agonist screen (% CP55, 940 Emax) (human CB1 receptor [2]): 4.3 ± 0.5 % CP55, 940 Emax | IC50 (CB1 receptor): 343 nM

O=C(Nc1ccc(Cl)cc1)Nc1cccc(N2CC3(COC3)C2)c1 [Compound 84, 3-(4-Chlorophenyl)-1-(3-{2-oxa-6-azaspiro[3.3]heptan-6-yl}phenyl)urea]
IC50 (human CB1 receptor [1]): 792 ± 43 nM | CB1 calcium assay Agonist screen (% CP55, 940 Emax) (human CB1 receptor [2]): 28.8 ± 0.2 % CP55, 940 Emax | IC50 (CB1 receptor): > 10000 nM

O=C(Nc1ccc(Cl)cc1)Nc1cccc(-c2cccc(N3CCCC3)n2)c1 [Compound B, 1-(4-Chlorophenyl)-3-{3-[6-(pyrrolidin-1-yl)pyridin-2-yl]phenyl}urea, reference compound]
CB1 calcium assay Agonist screen (% CP55, 940 Emax) (human CB1 receptor [2]): 28.2 ± 4.8 % CP55, 940 Emax | IC50 (CB1 receptor): 102 nM | Effect on [35S]GTP-γ-S binding level (CB1 receptor; CP55,940 as agonist probe): dose-dependently decreased | Attenuation of cocaine-induced reinstatement of cocaine-seeking behavior ([4]; dose 30 mg/kg, cocaine prime 10 mg/kg i.p.): significantly reduced cocaine-induced reinstatement behavior | Attenuation of cocaine-induced reinstatement of cocaine-seeking behavior [4, 5]: dose-dependently attenuated; also recorded: attenuated the resumption of extinguished cocaine-seeking behavior
